Data from patent US20240400549A1, “COMPOUNDS AND THEIR USES FOR TREATING NEURODEGENERATIVE DISEASE” (Academia Sinica, priority 2021, published 2024).
Peptide text beside a SMILES is read from it. * marks the point of attachment. Cbz = O=C(OCc1ccccc1)*

What was measured:
[1] = tested on: Neuro-2a cells; experiment: Cytotoxicity of compounds in Neuro-2a cells; format: cell-based, mouse; details: for cytotoxicity as compared to that of compound II-1d: 5 or 10 μM concentration, Neuro-2a cells
[2] = target: T1, pathogenic tau protein (pTau) (Homo sapiens, UniProt P10636, P618L); experiment: Western blot of pathogenic tau protein (pTau) in SH-SY5Y-Tau-P301L cells; format: cell-based; details: 5 μM, 24 h, doxycycline-induced SH-SY5Y-Tau-P301L cells
T1 construct: expressed in transfected cells; host or cells: SH-SY5Y-Tau-P301L (doxycycline-inducible)
T1 sequence (P10636 1-441 isoform P10636-8 P301L): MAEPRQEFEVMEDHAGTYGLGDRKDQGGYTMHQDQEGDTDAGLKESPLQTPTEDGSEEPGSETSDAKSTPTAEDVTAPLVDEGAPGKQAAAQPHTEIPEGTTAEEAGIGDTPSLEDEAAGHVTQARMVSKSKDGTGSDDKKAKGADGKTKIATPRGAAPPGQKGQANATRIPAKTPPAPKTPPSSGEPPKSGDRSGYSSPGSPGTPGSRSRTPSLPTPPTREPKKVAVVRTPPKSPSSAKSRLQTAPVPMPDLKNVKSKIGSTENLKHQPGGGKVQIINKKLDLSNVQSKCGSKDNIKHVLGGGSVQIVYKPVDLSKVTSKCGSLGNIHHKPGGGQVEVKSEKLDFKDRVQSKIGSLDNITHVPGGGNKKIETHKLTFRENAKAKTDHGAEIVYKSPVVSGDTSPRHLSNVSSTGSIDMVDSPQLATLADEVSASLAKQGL
Experimental: The SH-SY5Y-Tau-P301L cell line (SY5Y-Tau) were cultured in DMEM supplemented with 10% FBS and incubated in a humidified incubator at 37° C. with 5% CO2. To induce the expression of pathogenic Tau (pTau), SY5Y-Tau cells were seeded at 1×10^5/60-mm plate, cultured for 2-3 days to reach 70% confluence, and treated with doxycycline (1 μg/mL) for 24 hr to induce the expression of pTau.
(§1) Alternatively, cells were lysed with RIPA lysis buffer (150 mM sodium chloride, 1% Nonidet P-40, 0.5% sodium deoxycholate, 0.1% SDS, and 50 mM Tris-HCl, pH 8.0) containing 1× protease inhibitor cocktail and 1× phosphatase inhibitor cocktail to prepare total lysates, which were rotated at 4° C. for 1 h. Protein concentrations were determined with a Bio-Rad protein assay kit (Bio-Rad, Hercules, CA, USA). Protein samples were separated on 8-10% SDS-PAGE gels and electrophoretically transferred onto PVDF membranes (Millipore, Billerica, MA, USA). The membranes were incubated overnight at 4° C. with the following primary antibodies: anti-GAPDH (GeneTex; GTX627408), anti-HTT (Habel; a custom antibody raised against protein translated from the exon 1 of HTT (designated HTTEX1), anti-pTau (MC1, a generous gift from Dr. Peter Davies, the Feinstein Institute for Medical Research, New York, USA), and anti-VCP (BD, East Rutherford, NJ, USA). Immunoreactive bands were detected by enhanced chemiluminescence (ECL; Millipore) and recorded using the UVP ChemiDoc-It Imaging System (Upland, CA, USA).
Hyperphosphorylated tau protein is a major hallmark of Alzheimer's disease and many other neurological disorders (including Huntington's disease). To investigate the effects of the compounds of formula (I) or formula (II) on the pathogenic tau protein (designated pTau), SH-SY5Y-Tau-P301L cells were treated with doxycycline (1 μg/mL) (which induced the expression of pathogenic tau protein (pTau), and the indicated compound (5 μM) for 24 h. Total protein lysates were then harvested and analyzed by Western blot analyses. Results are illustrated in FIG. 4.

[3] = target: T2, 109Q-HTTEX1 (Homo sapiens, UniProt P42858); experiment: Western blot of polyQ-expanded huntingtin (109Q-HTTEX1) in transfected Neuro-2a cells; format: cell-based; details: 5 μM, 24 h
T2 construct: the polyQ-expanded N terminus of HTT translated from the exon 1 of human huntingtin gene; expressed in transfected cells; host or cells: Neuro-2a (mouse neuroblastoma)
T2 sequence (P42858 with tags, fused parts or gaps): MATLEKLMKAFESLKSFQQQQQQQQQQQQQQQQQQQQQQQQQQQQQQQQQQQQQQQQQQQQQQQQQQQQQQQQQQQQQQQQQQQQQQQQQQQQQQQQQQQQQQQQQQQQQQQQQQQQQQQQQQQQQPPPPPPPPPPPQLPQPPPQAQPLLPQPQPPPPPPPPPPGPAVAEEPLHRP
Experimental: (§2) Mouse neuroblastoma cell line (Neuro-2a) were cultured in Dulbecco's modified Eagle's medium (DMEM; Gibco) containing 2×10^−3 M glutamine, 10% heat inactivated fetal bovine serum (FBS), and 100 U mL^−1 penicillin-streptomycin (Gibco) at 37° C. in a humidified incubator containing 5% CO2. Alternatively, Neuro-2a cells were cultured in Dulbecco's modified Eagle's medium (DMEM; Invitrogen, Carlsbad, CA, USA) supplemented with 10% heat-inactivated FBS. The cells were incubated in a humidified incubator at 37° C. with 10% CO2. Transfection was performed using T-Pro NTR II (Ji-Feng Biotechnology, Taiwan) following the manufacturer's protocol.
as §1
In this example, the effect of the present compound on huntingtin (HTT) protein (a protein known to cause Huntington's disease) was investigated. To this purpose, Neuro-2a cells were transiently transfected with pcDNA3-109Q-HTTEX1 (i.e., the polyQ-expanded N terminus of HTT translated from the exon 1 of human huntingtin gene (designated 109Q-HTTEX1)) and then exposed to the indicated compound (5 μM) for additional 24 h. Total protein lysates were harvested for Western blot analyses, and results are depicted in FIG. 3.

[4] = target: T3, eGFP-C-TDP-43 aggregates (Homo sapiens, UniProt Q13148); experiment: Filter trap assay of insoluble eGFP-C-TDP-43 aggregates in transfected Neuro-2a cells; format: cell-based, mouse; details: 5 μM
T3 construct: expressed in transfected cells; host or cells: Neuro-2a (mouse neuroblastoma)
T3 sequence (Q13148 208-414 limits assumed): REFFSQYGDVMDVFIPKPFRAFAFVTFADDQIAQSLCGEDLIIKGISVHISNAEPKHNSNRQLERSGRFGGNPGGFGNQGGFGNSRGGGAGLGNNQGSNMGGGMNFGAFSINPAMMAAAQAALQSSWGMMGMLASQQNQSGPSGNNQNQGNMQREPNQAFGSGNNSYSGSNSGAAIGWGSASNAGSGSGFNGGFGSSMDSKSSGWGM
Experimental: as §2
Neuro-2a cells were seeded in a 6-well plate at a concentration of 2×10^5 cells/well and incubated overnight. Once the cells were attached, Neuro-2a cells were transfected with the eGFP-C-TDP-43 plasmid (2.2 μg) using Turbofect transfection reagent (Invitrogen) and treated with or without 5 μM test compound after 2 h transfection. After incubation for another 22 h, the transfected cells were harvested by RIPA buffer containing protease inhibitor (Roche) and sonicated on ice for 10 seconds. Extracts were centrifuged at 14000 rpm for 10 min at 4° C., followed by measurement of protein concentration using a bicinchoninic acid (BCA) assay. […] Aggregated eGFP-C-TDP-43 protein trapped by the CA membranes was determined by immunoblotting. […]
In this example, the effect of the present compound on C-TDP-43 aggregates was investigated. To this purpose, the eGFP-TDP-43208-414 (hereafter referred as eGFP-C-TDP-43) expressed Neuro-2a cells were first treated with tested compound (e.g., any one of the compounds of formula (I) or (II), then, cells were lysed and the insoluble eGFP-C-TDP43 aggregates were quantified by use of filter trap assay as described in the “Materials and Methods” section; for comparison, slot blot assay was also performed by using the nitrocellulose (NC) membrane for the loading control. Results are depicted in FIG. 1.

[5] = tested on: YFP—C-TDP-43 transgenic C. elegans; experiment: Swimming (thrashing) body bend assay of YFP-C-TDP-43 transgenic C. elegans; format: in vivo; details: YFP—C-TDP-43 C. elegans, swimming in buffer
Experimental: The YFP—C-TDP-43 transgenic strains of C. elegans generated in this study were IW33 [Psnb-l:C-TDP-43219-414-YFP (iwIs22)]. The strains of nematodes were maintained with standard procedure and grown at 20° C. as previously described (Zhang, T. et al. Hum. Mol. Genet. 2011, 20 (10), 1952). For all assays, the transgenic young two-day (80 hours) adults were used. For larvae synchronization, the eggs were isolated by lysing gravid adult worms with freshly prepared bleaching solution (0.5 mL 5 M NaOH with 1 mL bleach) and incubated in S buffer (recipe) for overnight. For drug treatments, compound I-1b and/or DMSO were solely or along with MG132 applied to fresh NGM plates prior to installing the synchronized C. elegans. The body bends of the corresponding treatment in a duration of 30 seconds of the various strains were documented through SMZ800N stereomicroscope equipped with a CCD camera (Nikon). A body bend was counted as the head of C. elegans travels across the mid-body in 1×PBS buffer. Then, the bending videos of C. elegans were analyzed by ImageJ with the wrMTrck plugin (Nussbaum-Krammer, C. I. et al. J. Vis. Exp. 2015, (95), 52321). […]
As YFP—C-TDP-43 readily forms cytosolic aggregates in nervous system, the YFP—C-TDP-43 aggregates both in the neuron processes and neuron bodies of the ventral cord were monitored. […]

reduction of the expressed level of pTau [2] | reduction of the expression of 109Q-HTTEX1 [3] | level of C-TDP-43 aggregate as compared to the control group [4] | Compound | other results
 | 20% | significantly reduce | CNc1ccc(/C=C/c2ccc(OCCOCCOCCNc3cccc4c3C(=O)N(C3CCC(=O)NC3=O)C4=O)nc2)cc1 (stereo not drawn) [II-1b, (E)-2-(2,6-dioxopiperidin-3-yl)-4-((2-(2-(2-((5-(4-(methylamino)styryl)pyridin-2-yl)oxy)ethoxy)ethoxy)ethyl)amino)isoindoline-1,3-dione] | reduction of the expressed level of pTau ([2]; listed as IT-1b): negligible effect; cytotoxicity as compared to that of compound II-1d [1]: less cytotoxicity
approximately 40% | approximately 50% | significantly reduce | CNc1ccc(/C=C/c2ccc(OCCOCCOCCNc3cccc4c3C(=O)N(C3CCC(=O)NC3=O)C4=O)nc2)cc1 (stereo not drawn) [II-1d, (E)-2-(2,6-dioxopiperidin-3-yl)-4-((2-(2-(2-((5-(4-(methylamino)styryl)pyridin-2-yl)oxy)ethoxy)ethoxy)ethyl)amino)isoindoline-1,3-dione] | 
 |  | significantly reduce | CNc1ccc(/C=C/c2ccc(OCCCCCCCCCCNc3cccc4c3C(=O)N(C3CCC(=O)NC3=O)C4=O)nc2)cc1 (stereo not drawn) [II-2d, (E)-2-(2,6-dioxopiperidin-3-yl)-4-((10-((5-(4-(methylamino)styryl)pyridin-2-yl)oxy)decyl)amino)isoindoline-1,3-dione] | cytotoxicity as compared to that of compound II-1d [1]: lower toxicity

Second part, the compound before the results:

Compound | reduction of the expressed level of pTau [2] | reduction of the expression of 109Q-HTTEX1 [3] | level of C-TDP-43 aggregate as compared to the control group [4] | other results
CN(C)c1ccc(-c2nc3ccc(OCCOCCNc4cccc5c4C(=O)N(C4CCC(=O)NC4=O)C5=O)cc3s2)cc1 (stereo not drawn) [I-1a, 4-((2-(2-((2-(4-(dimethylamino)phenyl)benzo[d]thiazol-6-yl)oxy)ethoxy)ethyl)amino)-2-(2,6-dioxopiperidin-3-yl)isoindoline-1,3-dione] |  |  |  | cytotoxicity comparing to mock group of Neuro-2a cells ([1]; 5 μM concentration): neglectable cytotoxicity
CN(C)c1ccc(-c2nc3ccc(OCCOCCOCCOCCNc4cccc5c4C(=O)N(C4CCC(=O)NC4=O)C5=O)cc3s2)cc1 (stereo not drawn) [I-1c, 4-((2-(2-(2-(2-((2-(4-(dimethylamino)phenyl)benzo[d]thiazol-6yl)oxy)ethoxy)ethoxy)ethoxy)ethyl)amino)-2-(2,6-dioxopiperidin-3-yl)isoindoline-1,3-dione] | approximately 40% | approximately 50% |  | 
CN(C)c1ccc(-c2nc3ccc(OCCOCCOCCOCCOCCNc4cccc5c4C(=O)N(C4CCC(=O)NC4=O)C5=O)cc3s2)cc1 (stereo not drawn) [I-1d, 4-((14-((2-(4-(dimethylamino)phenyl)benzo[d]thiazol-6-yl)oxy)-3,6,9,12-tetraoxatetradecyl)amino)-2-(2,6-dioxopiperidin-3-yl)isoindoline-1,3-dione] | approximately 40% | approximately 50% |  | 
CC(C)C[C@@H](C=O)NC(=O)[C@H](CC(C)C)NC(=O)[C@H](CC(C)C)NC(=O)OCc1ccccc1 [MG132, reference compound] (Cbz-Leu-Leu-Leu-aldehyde) |  |  |  | bending frequency (in words) [5]: slow bending frequency
